Article PMC9124820, “In vitro evaluation of fenfluramine and norfenfluramine as victims of drug interactions” (Pharmacology Research & Perspectives, 2022)

Experiments:
[1] = molecular target: T1, rCYP2D6 (Homo sapiens, UniProt P10635); assay: Reaction phenotyping with rCYP2D6; format: in vitro ADME; details: rCYP2D6, 60 min
T1 construct: purchased Cypex, Ltd; host or cells: Escherichia coli
Protocol: (§1) For FFA and nFFA reaction phenotyping experiments, LC‐MS/MS experiments were performed using an API 4000 QTRAP or QTRAP 5500 mass spectrometer (SCIEX) with positive electrospray ionization. Chromatography was performed using an Atlantis dC18 analytical column (100 × 2.1 mm, 5 µm; Waters Corporation). Mobile phases were 0.2% v/v formic acid in water and 0.2% v/v formic acid in methanol. FFA and nFFA were eluted at a flow rate of 0.5 mL/min with a linear gradient of 40%−95% methanol from 0.20−2.1 min. The mass transitions monitored were 232.0>109.0 for FFA, 204.0>159.0 for nFFA, 348.0>330.0 for 1’‐hydroxymidazolam‐d4 internal standard (FFA reaction phenotyping), and 262.0>244.0 for hydroxybupropion‐d6 internal standard (nFFA reaction phenotyping). Analyst Instrument Control and Data Processing software (v. 1.6.1) was used for collecting and integrating data (SCIEX). Calibration curves ranging from 1.25 µM−0.01 µM were used to quantify nFFA. Relative quantitation was used to approximate the amount of FFA test material used.
(§2) Methods used to evaluate the role of CYP450s in the metabolism of FFA have been described.[22], [23], [24] […] Supernatant fractions were analyzed by LC‐MS/MS.

[2] = molecular target: T2, rCYP2B6 (Homo sapiens, UniProt P20813); assay: Reaction phenotyping with rCYP2B6; format: in vitro ADME
T2 construct: purchased Cypex, Ltd; host or cells: Escherichia coli
T2 sequence (P20813 1-491): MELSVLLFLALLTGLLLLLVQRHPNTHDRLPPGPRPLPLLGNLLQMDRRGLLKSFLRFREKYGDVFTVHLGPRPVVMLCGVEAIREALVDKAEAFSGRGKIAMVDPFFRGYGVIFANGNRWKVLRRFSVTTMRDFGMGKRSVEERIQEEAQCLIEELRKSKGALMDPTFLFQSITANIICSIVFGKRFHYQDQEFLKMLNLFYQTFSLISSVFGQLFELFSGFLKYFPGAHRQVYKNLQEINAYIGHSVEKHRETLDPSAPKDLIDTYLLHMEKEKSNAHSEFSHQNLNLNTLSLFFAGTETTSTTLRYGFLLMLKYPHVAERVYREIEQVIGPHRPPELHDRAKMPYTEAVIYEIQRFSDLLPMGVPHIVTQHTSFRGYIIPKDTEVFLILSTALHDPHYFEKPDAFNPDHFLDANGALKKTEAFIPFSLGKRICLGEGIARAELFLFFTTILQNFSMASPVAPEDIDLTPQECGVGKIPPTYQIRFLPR
Protocol: as §1, §2

T1 sequence (P10635 whole entry): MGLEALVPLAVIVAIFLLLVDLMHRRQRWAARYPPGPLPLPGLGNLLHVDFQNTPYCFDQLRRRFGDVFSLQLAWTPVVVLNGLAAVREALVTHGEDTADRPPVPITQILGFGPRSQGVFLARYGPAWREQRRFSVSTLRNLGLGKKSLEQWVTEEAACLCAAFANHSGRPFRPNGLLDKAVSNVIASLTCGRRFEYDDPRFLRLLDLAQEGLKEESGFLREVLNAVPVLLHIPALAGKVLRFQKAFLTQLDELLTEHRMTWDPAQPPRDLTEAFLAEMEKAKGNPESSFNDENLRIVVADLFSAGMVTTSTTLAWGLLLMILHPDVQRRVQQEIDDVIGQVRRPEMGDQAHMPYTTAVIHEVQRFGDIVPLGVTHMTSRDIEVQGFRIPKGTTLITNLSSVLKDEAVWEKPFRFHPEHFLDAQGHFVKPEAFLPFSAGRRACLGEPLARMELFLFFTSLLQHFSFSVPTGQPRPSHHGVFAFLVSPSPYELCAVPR

CCNC(C)Cc1cccc(C(F)(F)F)c1 (racemic) [FFA, (RS)‐ethyl (α‐methyl‐3‐trifluoromethylphenethyl)amine]
Disappearance of FFA ([1]; 1 μM FFA): 97%
FFA loss ([1]; 10 μM FFA): 59%
FFA disappearance ([2]; 1 µM FFA, rCYP2B6): 10%
FFA loss ([2]; 10 μM FFA, rCYP2B6, 60 min): 21%
